Test results from patent US20130244875A1, “METHODS AND COMPOSITIONS FOR IMPROVING PLANT HEALTH” (priority 2006, published 2013).

What was measured:
Pythium ultimum = Pythium ultimum inoculation of cotton seedlings after spray; format: in vivo; details: same conditions kill plants not contacted with 3,6-DCSA
Experimental: Ten-day old Roundup Ready® Flex Cotton (Event MON 88913; U.S. Publ. 20060059590) seedlings were sprayed with a mixture of Roundup Weather Max® (Monsanto Company, St. Louis, Mo.) and 3,6-DCSA (BASF). The control plants were sprayed with water only. The cotton seedlings from both treatments were inoculated with Pythium ultimum by dipping seedling into inoculum slurry, 24 hours after the spray application. The positive control plants were neither sprayed nor inoculated with P. ultimum. […] Cotton plants treated with Roundup® and DCSA were as healthy as were the plants not inoculated with P. ultimum.

soybean plants [1] = test: Ozone tolerance of soybeans; format: in vivo; details: 0.5 lbs/A DCSA about 72 hours before, 10 hours
Experimental: Many plants are sensitive to ozone (O3), soybeans are particularly sensitive to ozone damage and show leaf flecking and chlorosis. Ozone can be produced in the atmosphere by a photochemical process in air polluted environments. Soybean production can be affected by ozone when soybeans are cultivated near urban areas or air pollution from urban areas is distributed to agricultural areas where soybeans are grown. An experiment was conducted to determine if DCSA treatment of soybean plants will provide tolerance to oxidative stress caused by ozone. Soybeans were treated with 0.5 lbs/A DCSA approximately 72 hours before exposure to ozone. Controls had no DCSA treatment. Four plants were treated with ozone in one 72 quart sterilite container with a clear plexiglass lid. Ozone was generated at 2 concentrations in the container with the plants at a low rate (2.8 ppm, parts per million) or a high rate (770 ppm) and the plants exposed for 10 hours at these concentrations. Light levels at plant height were ˜400μ Einsteins m-2 s-1, enough to insure photosynthesis. Air in the container was mixed using a small fan to insure proper exposure. Plants were removed from the treatment container and placed in a growth chamber to observe symptom development.

[2] = system: PR-2, i.e., β-1,3-glucanase; test: Induction of PR2 (northern blot) in DMO soybean sprayed with dicamba or DCSA; format: in vivo; details: two transgenic soybean lines; 0.25, 0.5 and 1 lb/Acre; 24 hrs after treatment; no induction in untreated or water only
Experimental: A 14 hour minimum photoperiod was provided with supplemental light at about 600 μE (micro-Einsteins) as needed. Trials were established in a randomized block design randomized by rate with 4 to 6 replications of each treatment.
All herbicide applications were made with the track sprayer using a Teejet® 9501E flat fan nozzle (Spraying Systems Co, Wheaton, Ill.) with air pressure set at a minimum of 24 psi (pounds per square inch), or 165 kpa (kilopascals)). The spray nozzle was kept at a height of about 16 inches above the top of plant material for spraying. The spray volume was 10 gallons per acre or 93 liters per hectare. Applications were made when plants had reached V-3 stage.
Events carrying a DMO transgene in their genome were grown and treated with dicamba (Clarity®, BASF) at 1 lb/Acre at Post-V3 stage. Leaf samples were harvested after 0, 3, 8, 24, 48, 72 hrs after treatment (HAT) and frozen for further analysis. In another experiment, DMO-containing plants were sprayed with either dicamba or DCSA at 0.25, 0.5 and 1 lb/Acre rate and tissue samples were collected 24 HAT. RNA was extracted and analyzed by northern blot analysis using PR-2, i.e., β-1,3-glucanase as a probe. PR-2 is a pathogenesis-related protein known to degrade […] and thus provide protection against fungal pathogens (U.S. Pat. No. 5,670,706 and Uknes et al., 1992).

soybean plants [3] = test: Copper injury on soybeans; format: in vivo; details: DCSA 0.5 lb/A as tank mix or pretreatment 1 hr or 24 hr before 1000 ppm copper; reduced from 45%
Source text: Plants are sensitive to heavy metal toxicity. Heavy metals are present in the environment or sometimes applied to plants for pest control. Symptoms of plant injury following treatment with a heavy metal compound, for example, a compound containing copper, are necrotic leaf spotting and flecking with more severe injury resulting in larger reddish brown spots, […] necrosis and/or necrotic puckered leaves.

PR5 = test: Induction of PR5 (northern blot) by dicamba or DCSA; format: in vivo, soybean; details: probe specific to PR5; procedures as for PR2
soybean seeds = test: Soybean seed germination in DCSA solution; format: in vivo; parameters: key: 1—low; 2—moderate; 3—high; 3+—exceptionally high; details: N=8
Experimental: Rapid seed germination is an important agronomic trait that reduces crop losses due to seed rot especially under cool wet conditions. Soybeans seeds of three varieties were germinated in a solution of 1, 10, or 100 μM DCSA or water at normal temperature (22° C.) or cool temperature (15° C.) and rated for seed germination at 1DAT (1 day after treatment) and 2DAT (2 days after treatment) at 22° C. or 4DAT (days after treatment) at 15° C. The germination rate was scored as 1—low, 2—moderate, 3—high for each treatment, 3+—exceptionally high, N=8.

[4] = system: Xanthomonas campestris pv. malvacearum; test: Bacterial blight inoculation of cotton plants after DCSA spray; format: in vivo; details: two-week old cotton; DCSA spray 24 hours before tooth pick inoculation; unsprayed plants developed necrotic spots
Experimental: In this example, two-week old cotton plants were sprayed with DCSA while control plants received spray application of water only. The plants were inoculated with bacterial blight pathogen (Xanthomonas campestris pv. malvacearum) about 24 hours after the DCSA spray application using a tooth pick inoculation method. As shown in the FIG. 4, the cotton plants inoculated with the bacterial pathogen but not sprayed with DCSA developed necrotic spots, typical symptoms of bacterial blight. […] The results of this experiment indicate that DCSA application reduced bacterial infection on cotton plants when inoculated with bacterial pathogen 24 hours after the DCSA spray.

O=C(O)c1c(Cl)ccc(Cl)c1O [DCSA, 3,6-dichloro salicylic acid]
survival of cotton plants after inoculation with Pythium ultimum (Pythium ultimum): survive inoculation | ozone damage symptoms (soybean plants [1]; high ozone rate 770 ppm, control lower leaves visibly damaged): did not show any lower leaf damage | ozone damage symptoms (soybean plants [1]; low ozone rate 2.8 ppm, controls also without symptoms): no symptoms were observed | induction of PR2 at various rates [2]: induction of PR2 | Soybean injury levels (soybean plants [3]): 24-33% | induction of PR5 (PR5): Induction of PR5 | germination rating (soybean seeds; soybean Variety 1, 1 μM DCSA, 1DAT, 22° C.): 1 | germination rating (soybean seeds; soybean Variety 1, 1 μM DCSA, 2DAT, 22° C.): 3 | germination rating (soybean seeds; soybean Variety 1, 1 μM DCSA, 4 DAT, 15° C.): 1 | germination rating (soybean seeds; soybean Variety 1, 10 μM DCSA, 1DAT, 22° C.): 1 | germination rating (soybean seeds; soybean Variety 1, 10 μM DCSA, 2DAT, 22° C.): 3 | germination rating (soybean seeds; soybean Variety 1, 10 μM DCSA, 4 DAT, 15° C.): 3 | germination rating (soybean seeds; soybean Variety 1, 100 μM DCSA, 1DAT, 22° C.): 3 | germination rating (soybean seeds; soybean Variety 1, 100 μM DCSA, 2DAT, 22° C.): 3+ | germination rating (soybean seeds; soybean Variety 1, 100 μM DCSA, 4 DAT, 15° C.): 3 | germination rating (soybean seeds; soybean Variety 2, 1 μM DCSA, 1DAT, 22° C.): 2 | germination rating (soybean seeds; soybean Variety 2, 1 μM DCSA, 2DAT, 22° C.): 3 | germination rating (soybean seeds; soybean Variety 2, 1 μM DCSA, 4 DAT, 15° C.): 3 | germination rating (soybean seeds; soybean Variety 2, 10 μM DCSA, 1DAT, 22° C.): 2 | germination rating (soybean seeds; soybean Variety 2, 10 μM DCSA, 2DAT, 22° C.): 3 | germination rating (soybean seeds; soybean Variety 2, 10 μM DCSA, 4 DAT, 15° C.): 3 | germination rating (soybean seeds; soybean Variety 2, 100 μM DCSA, 1DAT, 22° C.): 3 | germination rating (soybean seeds; soybean Variety 2, 100 μM DCSA, 2DAT, 22° C.): 3+ | germination rating (soybean seeds; soybean Variety 2, 100 μM DCSA, 4 DAT, 15° C.): 3 | germination rating (soybean seeds; soybean Variety 3, 1 μM DCSA, 1DAT, 22° C.): 2 | germination rating (soybean seeds; soybean Variety 3, 1 μM DCSA, 2DAT, 22° C.): 2 | germination rating (soybean seeds; soybean Variety 3, 1 μM DCSA, 4 DAT, 15° C.): 3 | germination rating (soybean seeds; soybean Variety 3, 10 μM DCSA, 1DAT, 22° C.): 2 | germination rating (soybean seeds; soybean Variety 3, 10 μM DCSA, 2DAT, 22° C.): 3 | germination rating (soybean seeds; soybean Variety 3, 10 μM DCSA, 4 DAT, 15° C.): 2 | germination rating (soybean seeds; soybean Variety 3, 100 μM DCSA, 1DAT, 22° C.): 1 | germination rating (soybean seeds; soybean Variety 3, 100 μM DCSA, 2DAT, 22° C.): 3 | germination rating (soybean seeds; soybean Variety 3, 100 μM DCSA, 4 DAT, 15° C.): 1 | bacterial blight symptoms [4]: only localized lesions (HR response) and no increase in bacterial blight symptoms
